Assay results reported in US20230174649A1, “PHARMACEUTICAL COMPOSITIONS CONTAINING ANTI-CD47 ANTIBODIES” (I-MAB BIOPHARMA US LIMITED, priority 2020, published 2023).
“And” between values parts separate entries of the source, which are not always exact repeats. Identical values can stand only once.

How the values were obtained:
[1] = system: Calreticulin; assay: FACS analysis of expression level of calreticulin on tumor cell surface; format: cell-based, Human; conditions: Toledo cells, 12 hours
Method: (§1) For FACS analysis, on the day of analysis (day 1), Toledo cells were seeded into 96 well plate and cultured at a density of 0.2×10^6 cells/well. Then the cells were treated with the selected small molecule therapeutic agents for 12 hours.
(§2) On day 2, cells were harvested, washed twice and then re-suspended in 100 uL FACS buffer subject to FACS analysis. For detection of the expression of calreticulin and CD47, cells were incubated with anti-calreticulin antibody and commercially available anti-CD47 antibody (BD Biosciences, Catalog number: 561249) in dark at 4° C. for 30 mins.
(§3) Then, the cells were subject to FACS analysis. Data was acquired and analyzed.

[2] = system: Toledo Cells; assay: FACS-based phagocytosis assay, macrophages cocultured with Toledo cells; format: cell-based, Human
Method: FACS-based phagocytosis assays were performed to evaluate the phagocytic abilities of macrophages.
Toledo Cells (a tumor cell line, as a target) were labelled with CellTrace™ Far Red and plated into 96-well plate at a density of 0.15×10^6 cells/well for 12 hours. The Macrophages were prepared as discussed above and then labelled with CellTrace Violet. Next, the macrophages were added into the plate as an effector at an effector:target (Toledo) ratio of 1:3, giving a final density of macrophages at 0.05×10^6 cells/well. Macrophages and tumor cells were cocultured for 2-6 h at 37° C. in the presence of the indicated treatments (small molecule therapeutic agents, CD47 antibody, CD20 antibody or combinations). The incubation time depending on the phagocytosis rate, expecting phagocytosis of 5-20% cells.
Then, cells were acquired and data were analyzed.

[3] = system: macrophages; assay: Macrophage Viability Assay (CellTiter-Glo); format: cell-based, Human; conditions: for Macrophage viability (CellTiter-Glo Luminescent Cell Viability Assay): 16 hours, three replicate lines
Method: Then, the monocytes isolated by MACS were subsequently cultured in fresh complete medium supplemented with recombinant human granulocyte-macrophage colony-stimulating factor GM-CSF (50 ng/ml) and human recombinant IL-4 (35 ng/ml) to activate differentiated macrophages. After 6 days of culture (on day 7), cells were harvested, pooled together and counted for next use.
The cells from Example 2 were plated into a 96-well flat bottom plate at a density of 0.05×10^6 cells/well. After 2 hours of incubation, the macrophages were well attached to the plate. Then selected small molecule therapeutic agents were added to the well and cocultured for 16 hours. On day 8, macrophage viability was assessed by CellTiter-Glo® Luminescent Cell Viability Assay, according to the manufacture's instruction.

[4] = system: CD47; assay: FACS analysis of expression level of CD47 on tumor cell surface; format: cell-based, Human; conditions: Toledo cells, 12 hours
Method: as §1, §2, §3

[5] = system: WSU-DLCL2 cells; assay: Anti-tumor efficacy in WSU-DLCL2 tumor xenograft model; format: in vivo, NOD/SCID mice; conditions: 5 mg/kg each agent; for T/C (%) / TGI (%): day 43
Excerpt: To establish the xenograft model, human diffuse large B Cell lymphoma (WSU-DLCL2 cells) were subcutaneously (s.c.) injected into 6- to 7-week-old NOD/SCID mice (Shanghai Lingchang Biotechnology Co., Ltd, Shanghai, China) for tumor development. When tumor volume reaches a mean value of approximately 94 mm^3, 32 mice were divided into 4 groups of 8 equally and injected intravenously (i.v.) with PBS (control group), anti-CD47 antibody (i.e. T4J), rituximab, or anti-CD47 antibody T4J+ rituximab at a dose of 5 mg/kg, respectively (See, Table 5). The anti-tumor efficacy studies were performed using a twice per week dosing schedule (5 mg/kg) for 4 weeks.
The first day of antibody administration was designated as day 0. Mice were then monitored for tumor development and progression, and observation continued until day 43. Tumor volumes were measured twice a week in two dimensions (length and width) using a caliper, and the volumes were calculated using the following formula: Volume (V)=(L×W×W)/2, where L is tumor length (the longest tumor dimension) and W is tumor width (the longest tumor dimension perpendicular to L). The percentage of tumor growth inhibition (TGI) was calculated as follows: 100%×(1−[(Vtreated(^finalday)−Vtreated(^initial day))/(Vcontrol(^final day)−Vcontrol(^initial day)))]), where V is the tumor volume. Tumor body weight was measured twice per week after randomization and at day 43. Antibody treatment was then stopped after 43 days of study and mice were euthanized and necropsied for evidence of tumors.
Group comparisons were carried out using one-way analysis of variance (ANOVA). Data analysis were performed using IBM SPSS software version 18.0 (IBM, Armonk, N.Y., U.S.). Values of tumor volume and tumor body weight were expressed as mean±standard error of the mean (SEM). A P value of less than 0.05 (p<0.05) was considered statistically significant.

[6] = from tumor volume, i.v., BIW × 4 weeks

Cn1c(CCCC(=O)O)nc2cc(N(CCCl)CCCl)ccc21 [Bendamustine]
Mean Fluorescence Intensity (MFI) Calreticulin ([1]; 0.008 uM): 68.6 | Mean Fluorescence Intensity (MFI) Calreticulin ([1]; 0.04 uM): 70.1 | Mean Fluorescence Intensity (MFI) Calreticulin ([1]; 0.2 uM): 70.2 | Mean Fluorescence Intensity (MFI) Calreticulin ([1]; 1 uM): 76.3 | Mean Fluorescence Intensity (MFI) Calreticulin ([1]; 5 uM): 86.2 | macrophage phagocytosis (untreated = 1.00) ([2]; Cpd 0.0016 uM, T4J = 0, R = 0): 1.06 | macrophage phagocytosis (untreated = 1.00) ([2]; Cpd 0.0016 uM, T4J = 0, R = 0.01 ug/ml): 1.58 | macrophage phagocytosis (untreated = 1.00) ([2]; Cpd 0.0016 uM, T4J = 0.1 ug/ml, R = 0): 2.53 | macrophage phagocytosis (untreated = 1.00) ([2]; Cpd 0.0016 uM, T4J = 0.1 ug/ml, R = 0.01 ug/ml): 3.29 | macrophage phagocytosis (untreated = 1.00) ([2]; Cpd 0.008 uM, T4J = 0, R = 0): 1.00 | macrophage phagocytosis (untreated = 1.00) ([2]; Cpd 0.008 uM, T4J = 0, R = 0.01 ug/ml): 1.52 | macrophage phagocytosis (untreated = 1.00) ([2]; Cpd 0.008 uM, T4J = 0.1 ug/ml, R = 0): 2.67 | macrophage phagocytosis (untreated = 1.00) ([2]; Cpd 0.008 uM, T4J = 0.1 ug/ml, R = 0.01 ug/ml): 3.26 | macrophage phagocytosis (untreated = 1.00) ([2]; Cpd 0.04 uM, T4J = 0, R = 0): 0.98 | macrophage phagocytosis (untreated = 1.00) ([2]; Cpd 0.04 uM, T4J = 0, R = 0.01 ug/ml): 1.53 | macrophage phagocytosis (untreated = 1.00) ([2]; Cpd 0.04 uM, T4J = 0.1 ug/ml, R = 0): 2.57 | macrophage phagocytosis (untreated = 1.00) ([2]; Cpd 0.04 uM, T4J = 0.1 ug/ml, R = 0.01 ug/ml): 3.19 | macrophage phagocytosis (untreated = 1.00) ([2]; Cpd 0.2 uM, T4J = 0, R = 0): 0.96 | macrophage phagocytosis (untreated = 1.00) ([2]; Cpd 0.2 uM, T4J = 0, R = 0.01 ug/ml): 1.41 | macrophage phagocytosis (untreated = 1.00) ([2]; Cpd 0.2 uM, T4J = 0.1 ug/ml, R = 0): 2.51 | macrophage phagocytosis (untreated = 1.00) ([2]; Cpd 0.2 uM, T4J = 0.1 ug/ml, R = 0.01 ug/ml): 3.10 | macrophage phagocytosis (untreated = 1.00) ([2]; Cpd 1 uM, T4J = 0, R = 0): 1.03 | macrophage phagocytosis (untreated = 1.00) ([2]; Cpd 1 uM, T4J = 0, R = 0.01 ug/ml): 1.46 | macrophage phagocytosis (untreated = 1.00) ([2]; Cpd 1 uM, T4J = 0.1 ug/ml, R = 0): 2.47 | macrophage phagocytosis (untreated = 1.00) ([2]; Cpd 1 uM, T4J = 0.1 ug/ml, R = 0.01 ug/ml): 3.05 | phagocytic ability of macrophages ([2]; triple combination: T4J, Rituximab and the small molecule): does not show the synergistic effects | Macrophage viability (CellTiter-Glo Luminescent Cell Viability Assay) ([3]; Cpd 0.002 uM): 6292 and 6220 and 5908 | Macrophage viability (CellTiter-Glo Luminescent Cell Viability Assay) ([3]; Cpd 0.008 uM): 6248 and 6356 and 6028 | Macrophage viability (CellTiter-Glo Luminescent Cell Viability Assay) ([3]; Cpd 0.04 uM): 6248 and 6124 and 5788 | Macrophage viability (CellTiter-Glo Luminescent Cell Viability Assay) ([3]; Cpd 0.2 uM): 6320 and 6664 and 5768 | Macrophage viability (CellTiter-Glo Luminescent Cell Viability Assay) ([3]; Cpd 1 uM): 6220 and 6200 and 5436 | Macrophage viability (CellTiter-Glo Luminescent Cell Viability Assay) ([3]; Cpd 5 uM): 6424 and 6308 and 5064 | Macrophage viability (CellTiter-Glo Luminescent Cell Viability Assay) ([3]; Cpd 25 uM): 5884 and 5724 and 4340 | Macrophage viability (CellTiter-Glo Luminescent Cell Viability Assay) ([3]; Cpd 50 uM): 5500 and 5736 and 4112 | toxicity to macrophages ([3]; dose as high as 50 μM): showed toxicity | toxicity to macrophages ([3]; dose lower than 10 μM): little toxic | Mean Fluorescence Intensity (MFI) CD47 ([4]; 0.008 uM): 9132 | Mean Fluorescence Intensity (MFI) CD47 ([4]; 0.04 uM): 8684 | Mean Fluorescence Intensity (MFI) CD47 ([4]; 0.2 uM): 8687 | Mean Fluorescence Intensity (MFI) CD47 ([4]; 1 uM): 8319 | Mean Fluorescence Intensity (MFI) CD47 ([4]; 5 uM): 9192

Rituximab: anti-CD20 antibody, heavy chain SEQ ID NO: 83, light chain SEQ ID NO: 84
Tumor Body Weight (mg) on day 43 (Mean ± SEM) ([5]; i.v., BIW × 4 weeks): 1673.7 ± 269.0 mg | Tumor Volume (mm^3) on day 43 (Mean ± SEM) ([5]; i.v., BIW × 4 weeks): 1578.37 ± 241.53 mm^3 | T/C (%) ([5]; from tumor body weight): 66% | TGI (%) ([5]; from tumor body weight): 34% | T/C (%) [5, 6]: 73% | TGI (%) [5, 6]: 27% | macrophage phagocytosis (untreated = 1.00) ([2]; Cpd 0, T4J = 0, R = 0.01 ug/ml, listed as R): 1.36 and 1.31 and 1.57 and 1.38 | phagocytic ability of macrophages ([2]; agent itself or antibody combination): can promote macrophage phagocytosis
